The text below walks through data of article PMC11300601, “Zurletrectinib is a next-generation TRK inhibitor with strong intracranial activity against NTRK fusion-positive tumours with on-target resistance to first-generation agents” (British Journal of Cancer, 2024).

One assay has as its system IRC-I-XL. The experiment in a line: CellTiter-Glo cell viability, IRC-I-XL primary CRC cell line (LMNA-NTRK1). The assay is classed as cell-based, human. The settings on record: LMNA-NTRK1 fusion, 72 h, read-out: IC50 against IRC-I-XL cell line. The source says:
(§1) NTRK fusion-positive colorectal cancer cell lines IRC, Kor1, and KM12 were utilized. The IRC and the KM12 cell lines were obtained from Dr. Bardelli and cultured according to the described protocols. The Kor1 cell line was obtained from Lee et al. and cultured on laminin pre-treated plates in RPMI media supplemented with 10% Fetal Bovine Serum (FBS). All cell lines were authenticated by STR and periodically screened for the presence of mycoplasma. For the mutant models, two human-derived colorectal cancer cell lines (IRC) and two mouse-derived glioma models (NLS) were used. […] Sequencing of the double mutant cell line was performed using MSK-IMPACT [25]. IRC primary cell lines were cultured with DMEM/F12 50:50 Mix (Corning) supplemented with 10% FBS. NLS Bcan-Ntrk1 Trka G598R and Bcan-Ntrk1 Trka G670C single mutants as well as double mutants NLS Bcan-Ntrk1 Trka G598R/G670A and NLS Bcan-Ntrk1 Trka G598R/G670C isogenic models were established using CRISPR/Cas9 to knock-in TRKA solvent-front and xDFG mutations into tumor cells derived from a Bcan-Ntrk1-driven glioma mouse model. Trka G598R is the mouse ortholog to human TRKA G595R while Trka G670A and Trka G670C are the mouse ortholog to human TRKA G667A and TRKA G667C, respectively. Mouse p53 ^−/^− Bcan-Ntrk1 glioma cells were plated on laminin-coated plates and cultured with Neurocult Stem Cell Basal Media with Proliferation Supplements (Stem Cell Technologies). […]
(§2) CellTiter-Glo Cell Viability Assays (Promega) and crystal violet clonogenic assays were performed on primary NTRK fusion-positive colorectal cancer cell lines, mouse Ba/F3 cell lines and isogenic mouse glioma cell lines. […] Absorbance was read at 490 nm in accordance with Promega’s protocol. […]
(§3) Statistical analyses were conducted using GraphPad Prism 9 (GraphPad Software Inc.). […] Measurements were assessed for normal distribution and homogeneity of variance using appropriate tests and were analyzed using analysis of variance or T-Tests, and nonparametric tests were used for non-normal distributed data. […]

A further assay concerns Kor1. Kind of assay: CellTiter-Glo cell viability, Kor1 primary CRC cell line (TPM3-NTRK1). The assay is classed as cell-based, human. As to conditions: TPM3-NTRK1 fusion, 72 h, read-out: IC50 against Kor1 cell line.
From the text: as §1, §2, §3

A further assay concerns Ba/F3 LMNA-NTRK1-A608D. The experiment in a line: Ba/F3 cell viability (anti-proliferative activity). The assay is classed as cell-based, mouse. The text has this: (§4) NTRK fusion-positive colorectal cancer cell lines IRC, Kor1, and KM12 were utilized. The IRC and the KM12 cell lines were obtained from Dr. Bardelli and cultured according to the described protocols. The Kor1 cell line was obtained from Lee et al. and cultured on laminin pre-treated plates in RPMI media supplemented with 10% Fetal Bovine Serum (FBS). All cell lines were authenticated by STR and periodically screened for the presence of mycoplasma. For the mutant models, two human-derived colorectal cancer cell lines (IRC) and two mouse-derived glioma models (NLS) were used. […] Sequencing of the double mutant cell line was performed using MSK-IMPACT [25]. IRC primary cell lines were cultured with DMEM/F12 50:50 Mix (Corning) supplemented with 10% FBS. NLS Bcan-Ntrk1 Trka G598R and Bcan-Ntrk1 Trka G670C single mutants as well as double mutants NLS Bcan-Ntrk1 Trka G598R/G670A and NLS Bcan-Ntrk1 Trka G598R/G670C isogenic models were established using CRISPR/Cas9 to knock-in TRKA solvent-front and xDFG mutations into tumor cells derived from a Bcan-Ntrk1-driven glioma mouse model. Trka G598R is the mouse ortholog to human TRKA G595R while Trka G670A and Trka G670C are the mouse ortholog to human TRKA G667A and TRKA G667C, respectively. Mouse p53 ^−/^− Bcan-Ntrk1 glioma cells were plated on laminin-coated plates and cultured with Neurocult Stem Cell Basal Media with Proliferation Supplements (Stem Cell Technologies). Ba/F3 cell lines stably expressing WT and mutant versions (i.e. G595R, G667C/A, V573M, F589L, F633L, F617L, G623R/E, G639R, G696A/C, G709C, V608D/M) of human TRKA, TRKB or TRKC were generated using either lentiviral transduction or standard transfection methods by a contract research organization (Kyinno, Beijing, China).
(§5) CellTiter-Glo Cell Viability Assays (Promega) and crystal violet clonogenic assays were performed on primary NTRK fusion-positive colorectal cancer cell lines, mouse Ba/F3 cell lines and isogenic mouse glioma cell lines. For the CellTiter-Glo assays, three biological replicates were performed, with each condition being assayed in triplicate determinations. Cells were seeded in a 96-well plate in the afternoon at optimal density. […] Plates were removed from the incubator 72 h later and CellTiter-Glo reagent was added. Absorbance was read at 490 nm in accordance with Promega’s protocol. Data is presented as a survival percentage on the y-axis (mean ± STDEV) normalized to the control DMSO-treated cells deemed 100% viable. Drug concentrations on the x-axis are represented as a base 10 logarithm (LOG). For the crystal violet assays, cells were seeded in a 24-well plate at optimal densities in the afternoon. […] Crystal violet plates were removed from the incubator 72 h later, washed with PBS, fixed with 4% paraformaldehyde for 15 min, and stained with crystal violet for 10 min. Crystal violet was washed off and plates were left to dry prior to imaging. Clonogenic assays were performed in three biological replicates.
(§6) Statistical analyses were conducted using GraphPad Prism 9 (GraphPad Software Inc.). For CellTiter-Glo assays, raw data obtained were normalized to the DMSO control utilizing Microsoft Excel. […] Data is presented as the mean ± standard deviation (STDEV) of all replicates. Measurements were assessed for normal distribution and homogeneity of variance using appropriate tests and were analyzed using analysis of variance or T-Tests, and nonparametric tests were used for non-normal distributed data. Animal studies utilized five arms with six or eight mice per arm. A Kaplan–Meier test was used to assess lifespan characteristics and for comparison between groups. Median survivals were obtained using GraphPad Prism 9. Sample size was based on statistical power analysis to ensure sufficient capability to detect a pre-specified effect size. We assumed a moderate effect size, with an alpha level set at 0.05, and a power (1-β) set at 0.80.

A further assay concerns Ba/F3 LMNA-NTRK1-F589L. Kind of assay: Ba/F3 cell viability (anti-proliferative activity). It counts as cell-based, mouse.
From the text: as §4, §5, §6

The next assay concerns Ba/F3 LMNA-NTRK1-G595R. Kind of assay: Ba/F3 cell viability (anti-proliferative activity). It counts as cell-based, mouse.
From the text: as §4, §5, §6

A further assay concerns Ba/F3 LMNA-NTRK1-G667A. The experiment in a line: Ba/F3 cell viability (anti-proliferative activity). It counts as cell-based, mouse.
From the text: as §4, §5, §6

In a further assay the test system is Ba/F3 LMNA-NTRK1-G667C. Kind of assay: Ba/F3 cell viability (anti-proliferative activity). The assay is classed as cell-based, mouse.
From the text: as §4, §5, §6

Another assay deals with Ba/F3 LMNA-NTRK1. The experiment in a line: Ba/F3 cell viability (anti-proliferative activity). The assay is classed as cell-based, mouse.
From the text: as §4, §5, §6

The next assay relates to Ba/F3-LMNA-NTRK1-V573M. The experiment in a line: Ba/F3 cell viability (anti-proliferative activity). It counts as cell-based, mouse.
From the text: as §4, §5, §6

For the next assay, the system named is Ba/F3 LMNA-NTRK1-G667S. The experiment in a line: Ba/F3 cell viability (anti-proliferative activity). The assay is classed as cell-based, mouse.

Read-outs that look alike come from different tables or passages of the source.

One may read the IC50 as the concentration that inhibits the measured activity by half. `O=C(Nc1cnn2ccc(N3CCC[C@@H]3c3cc(F)ccc3F)nc12)N1CC[C@H](O)C1` [Larotrectinib, larotrectinib]: the IC50 stood at 13.4 nM in the assay with IRC-I-XL (Homo sapiens); 24.8 nM with Kor1 (Homo sapiens); 19.7 nM with Ba/F3 LMNA-NTRK1-A608D (Mus musculus, BaF3); 614 nM with Ba/F3 LMNA-NTRK1-F589L (Mus musculus, BaF3); 3200 nM in the assay on Ba/F3 LMNA-NTRK1-G595R (Mus musculus, BaF3); 118 nM with Ba/F3 LMNA-NTRK1-G667A (Mus musculus, BaF3). Further, the IC50 amounted to 1370 nM in the assay on Ba/F3 LMNA-NTRK1-G667C (Mus musculus, BaF3); 21.8 nM in the assay on Ba/F3 LMNA-NTRK1 (Mus musculus, BaF3); 45.4 nM with Ba/F3-LMNA-NTRK1-V573M (Mus musculus, BaF3); 3200 nM in the assay with Ba/F3 LMNA-NTRK1-G667S (Mus musculus, BaF3).

On to `C[C@@H]1CCc2ncc(F)cc2[C@H]2CCCN2c2ccn3ncc(c3n2)C(=O)N1` [Selitrectinib, selitrectinib], for which the IC50 worked out at 4.6 nM in the assay with IRC-I-XL (Homo sapiens); 13 nM in the assay with Kor1 (Homo sapiens); 3.16 nM with Ba/F3 LMNA-NTRK1-A608D (Mus musculus, BaF3); 46.9 nM in the assay with Ba/F3 LMNA-NTRK1-F589L (Mus musculus, BaF3); 18.1 nM in the assay with Ba/F3 LMNA-NTRK1-G595R (Mus musculus, BaF3); 21.1 nM in the assay with Ba/F3 LMNA-NTRK1-G667A (Mus musculus, BaF3). Further, the IC50 stood at 164 nM with Ba/F3 LMNA-NTRK1-G667C (Mus musculus, BaF3); 3.38 nM in the assay with Ba/F3 LMNA-NTRK1 (Mus musculus, BaF3); 5.47 nM in the assay with Ba/F3-LMNA-NTRK1-V573M (Mus musculus, BaF3); 537 nM with Ba/F3 LMNA-NTRK1-G667S (Mus musculus, BaF3).

Consider zurletrectinib, for which the IC50 with IRC-I-XL amounted to 0.47 nM; with Kor1, 7.2 nM; in the assay on Ba/F3 LMNA-NTRK1-A608D it was 1.18 nM; with Ba/F3 LMNA-NTRK1-F589L, 40.8 nM; in the assay with Ba/F3 LMNA-NTRK1-G595R, 11 nM; in the assay with Ba/F3 LMNA-NTRK1-G667A, 5.27 nM. The IC50 in the assay with Ba/F3 LMNA-NTRK1-G667C came to 38.8 nM; in the assay with Ba/F3 LMNA-NTRK1 it was 1.2 nM; with Ba/F3-LMNA-NTRK1-V573M it was 2.33 nM; with Ba/F3 LMNA-NTRK1-G667S, 193 nM.
